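Following 48 hours of exposure in 96-well plates, responses at five concentrations were used to interpolate endpoints linearly. GI50 marks 50% less growth.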 Active and inactive are the calls of the source. Rule as the data show it: active = GI50 up to about 1.1 µM and inactive = higher.
Tests used:
Assay in all cases: NCI tumour cell line growth inhibition, 48 h
A549 = tested on: A549
SN12C = tested on: SN12C
SNB-75 = tested on: SNB-75
LOX IMVI = tested on: LOX IMVI
SNB-19 = tested on: SNB-19
NCI/ADR-RES = tested on: NCI/ADR-RES
A498 = tested on: A498
Malme-3M = tested on: Malme-3M
OVCAR-8 = tested on: OVCAR-8
PC-3 = tested on: PC-3
CAKI-1 = tested on: CAKI-1
SK-MEL-28 = tested on: SK-MEL-28
HCT-116 = tested on: HCT-116
M14 = tested on: M14
SF-268 = tested on: SF-268
UO-31 = tested on: UO-31
HOP-62 = tested on: HOP-62
HOP-92 = tested on: HOP-92
ACHN = tested on: ACHN
SR = tested on: SR

SMILES	GI50 (A549)	GI50 (SN12C)	GI50 (SNB-75)	GI50 (LOX IMVI)	GI50 (SNB-19)	GI50 (NCI/ADR-RES)	GI50 (A498)	GI50 (Malme-3M)	GI50 (OVCAR-8)	GI50 (PC-3)	GI50 (CAKI-1)	GI50 (SK-MEL-28)	GI50 (HCT-116)	GI50 (M14)	GI50 (SF-268)	GI50 (UO-31)	GI50 (HOP-62)	GI50 (HOP-92)	GI50 (ACHN)	GI50 (SR)
COC1(OC)C[C@H](C)[C@@]23O[C@]24c2cc(O)c5c(c2N[C@H]3C#C/C=C\C#C[C@]14O)C(=O)c1ccccc1C5=O	0.005 µM (active)	0.00136 µM (active)	0.005 µM (active)	0.005 µM (active)	0.005 µM (active)	0.005 µM (active)	0.00119 µM (active)	0.005 µM (active)	0.005 µM (active)	0.005 µM (active)	0.005 µM (active)	0.00775 µM (active)	0.005 µM (active)	0.005 µM (active)	0.005 µM (active)	0.005 µM (active)	0.005 µM (active)	0.00107 µM (active)		
C[C@@H](CC(=O)O)OC1OC(COC(=O)C(C)(C)C)C(OC(=O)C(C)(C)C)C(OC(=O)C(C)(C)C)C1OC(=O)C(C)(C)C (stereo partly specified)	45 µM (inactive)	48.2 µM (inactive)	72.8 µM (inactive)	97.3 µM (inactive)	28.2 µM (inactive)	> 100 µM (inactive)	> 100 µM (inactive)		81.7 µM (inactive)	46.9 µM (inactive)	62.2 µM (inactive)	89.7 µM (inactive)	47.5 µM (inactive)	> 100 µM (inactive)	50.7 µM (inactive)	> 10 µM (inactive)	> 100 µM (inactive)	38.1 µM (inactive)	22.6 µM (inactive)	
NC1=CN(CCCO)C2=N/C(=C\c3ccccc3)C(=O)N12	> 100 µM (inactive)	> 100 µM (inactive)	> 100 µM (inactive)	> 100 µM (inactive)	> 100 µM (inactive)	> 100 µM (inactive)	85.7 µM (inactive)	> 100 µM (inactive)	> 100 µM (inactive)	> 100 µM (inactive)	> 100 µM (inactive)	> 100 µM (inactive)	> 100 µM (inactive)	> 100 µM (inactive)	> 100 µM (inactive)	> 100 µM (inactive)	> 100 µM (inactive)	> 100 µM (inactive)	> 100 µM (inactive)	
COC(=O)C1(C(=O)OC)CC2=C(S(=O)(=O)c3ccccc3)C[C@@H](C#N)[C@H]2C1	> 100 µM (inactive)	> 100 µM (inactive)	> 100 µM (inactive)	> 100 µM (inactive)	> 100 µM (inactive)	> 100 µM (inactive)	> 100 µM (inactive)	> 100 µM (inactive)	> 100 µM (inactive)	> 100 µM (inactive)	> 100 µM (inactive)	> 100 µM (inactive)	> 100 µM (inactive)	> 100 µM (inactive)	> 100 µM (inactive)	> 100 µM (inactive)	> 100 µM (inactive)	28.9 µM (inactive)	> 100 µM (inactive)	
Nc1ccc(-c2nc3cc(F)ccc3s2)cc1I	23.6 µM (inactive)	20.9 µM (inactive)	16.1 µM (inactive)	39.5 µM (inactive)	21.1 µM (inactive)	18.8 µM (inactive)	15.8 µM (inactive)	26.1 µM (inactive)	19.1 µM (inactive)	24.2 µM (inactive)	15.6 µM (inactive)	52.7 µM (inactive)	18.5 µM (inactive)	39.3 µM (inactive)	16.5 µM (inactive)	16.1 µM (inactive)	10.2 µM (inactive)	17.3 µM (inactive)	5.36 µM (inactive)	
Nc1ncc(Cc2nn3c(COc4ccc(Cl)cc4)nnc3s2)s1	> 100 µM (inactive)	> 100 µM (inactive)	> 100 µM (inactive)		> 100 µM (inactive)	> 100 µM (inactive)		3.61 µM (inactive)	> 100 µM (inactive)	> 100 µM (inactive)	> 100 µM (inactive)	> 100 µM (inactive)	> 100 µM (inactive)	> 100 µM (inactive)	> 100 µM (inactive)	> 100 µM (inactive)	> 100 µM (inactive)	> 100 µM (inactive)	0.0543 µM (active)	49.2 µM (inactive)
